Experimental findings from patent US7056693B2 (priority 1998, dated 2006) are described below.

This experiment concerns National Cancer Institute's 60 cell line. Format: cell-based.

Consider “2-(2′-amino-3′-methoxyphenyl)-oxanaphthalen-4-one [PDO9859]”, for which the “Activity profile in the 60 cell line database compared with LF” value is “activity profile that is similar to LF”.
